Earlier results, collected in patent US20180200206A1, “[…] METHODS AND COMPOSITIONS FOR TREATING BREAST DISORDERS” (ATOSSA GENETICS INC., priority 2015, published 2018).

Biological target: estrogen receptor (Homo sapiens, UniProt P03372)
Details: more potent than tamoxifen; stated as known in the art

Chain of estrogen receptor (P03372 whole entry): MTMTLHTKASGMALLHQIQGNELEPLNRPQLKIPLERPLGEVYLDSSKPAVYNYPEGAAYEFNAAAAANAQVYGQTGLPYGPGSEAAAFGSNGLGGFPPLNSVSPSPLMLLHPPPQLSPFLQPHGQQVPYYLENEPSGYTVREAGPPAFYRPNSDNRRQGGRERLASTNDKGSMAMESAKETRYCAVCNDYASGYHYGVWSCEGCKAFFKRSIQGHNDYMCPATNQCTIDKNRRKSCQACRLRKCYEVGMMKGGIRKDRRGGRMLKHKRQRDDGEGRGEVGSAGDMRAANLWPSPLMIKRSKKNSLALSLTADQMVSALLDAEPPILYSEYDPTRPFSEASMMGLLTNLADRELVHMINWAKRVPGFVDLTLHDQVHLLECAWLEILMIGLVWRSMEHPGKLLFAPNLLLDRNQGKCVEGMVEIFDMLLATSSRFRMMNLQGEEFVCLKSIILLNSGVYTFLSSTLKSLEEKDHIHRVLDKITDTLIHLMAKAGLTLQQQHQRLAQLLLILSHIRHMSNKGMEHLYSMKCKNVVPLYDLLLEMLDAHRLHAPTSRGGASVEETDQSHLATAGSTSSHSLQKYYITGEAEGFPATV

potency relative to tamoxifen: 100 times
Substance: 4-hydroxytamoxifen
